Like-named read-outs stand apart in the source and are kept apart here.
Tests used:
Assay in all cases: Secondary dose-response HTS, Cell Titer Glo; call rule not given here
Format in all cases: cell-based, human
CMK = details: CMK
CHRF288-11 = tested on: CHRF288-11
MOLM-13 = tested on: MOLM-13
CMS = details: for EC50: Homo sapiens
ML2 = details: for EC50: Homo sapiens
MV4-11 = tested on: MV4-11
M07e = details: for EC50: Homo sapiens, M-07e
U937 = tested on: U937
[1] = Homo sapiens, HTS, secondary high-throughput screen, CHRF288-11, read-out: average effective concentration, CHRF288-11
[2] = HTS, secondary high-throughput screen, CMS, read-out: average effective concentration, CMS
[3] = secondary high-throughput screen, ML-2, read-out: average effective concentration, ML-2
[4] = Homo sapiens, secondary high-throughput screen, MV4-11, read-out: average effective concentration, MV4-11
[5] = secondary high-throughput screen, M07e, read-out: average effective concentration, M07e
[6] = Homo sapiens, U-937, secondary high-throughput screen, U937, read-out: average effective concentration, U937
[7] = secondary high-throughput screen
[8] = secondary high-throughput screen, CHRF288-11
[9] = secondary high-throughput screen, MOLM-13
[10] = secondary high-throughput screen, CMS
[11] = secondary high-throughput screen, ML-2
[12] = secondary high-throughput screen, MV4-11
[13] = secondary high-throughput screen, M07e
[14] = secondary high-throughput screen, U937
[15] = Homo sapiens, read-out: average effective concentration, CMK
[16] = Homo sapiens, secondary high-throughput screen, MOLM-13, read-out: average effective concentration, MOLM-13
[17] = HTS, read-out: average effective concentration, CMS
[18] = secondary high-throughput screen, MOLM-13, read-out: average effective concentration, MOLM-13
[19] = Homo sapiens, secondary high-throughput screen, read-out: average effective concentration, CMK

SMILES | EC50 (CHRF288-11; [1]) | EC50 (CMS; [2]) | EC50 (ML2; [3]) | EC50 (MV4-11; [4]) | EC50 (M07e; [5]) | EC50 (U937; [6]) | average effective concentration, CMK (CMK; [7]) | average effective concentration, CHRF288-11 (CHRF288-11; [8]) | average effective concentration, MOLM-13 (MOLM-13; [9]) | average effective concentration, CMS (CMS; [10]) | average effective concentration, ML-2 (ML2; [11]) | average effective concentration, MV4-11 (MV4-11; [12]) | average effective concentration, M07e (M07e; [13]) | average effective concentration, U937 (U937; [14]) | EC50 (MOLM-13; [16]) | EC50 (CMK; [19]) | other results
C[C@@H]1O[C@@H](O[C@H]2C[C@@H](O)[C@]3(CO)[C@H]4[C@H](O)C[C@]5(C)[C@@H](C6=CC(=O)OC6)CC[C@]5(O)[C@@H]4CC[C@]3(O)C2)[C@H](O)[C@H](O)[C@H]1O [Ouabain, reference compound] | 43 nM | 46 nM | 31 nM | 38 nM | 64 nM | 41 nM | – | – | – | – | – | – | – | – | – | – | EC50 (CMK; Homo sapiens, secondary HTS, 72 h, average of triplicate, read-out: EC50 CMK): 180 nM; EC50 (CHRF288-11; Homo sapiens, secondary HTS, 72 h, average of triplicate, read-out: EC50 CHRF288-11): 40 nM; EC50 (MOLM-13; Homo sapiens, MOLM-13, secondary HTS, 72 h, average of triplicate, read-out: EC50 MOLM-13): 30 nM; EC50 (CMS; secondary HTS, 72 h, average of triplicate, read-out: EC50 CMS): 50 nM; EC50 (ML2; ML-2, secondary HTS, 72 h, average of triplicate, read-out: EC50 ML2): 30 nM; EC50 (MV4-11; Homo sapiens, MV4-11, secondary HTS, 72 h, average of triplicate, read-out: EC50 MV4-11): 40 nM; EC50 (M07e; secondary HTS, 72 h, average of triplicate, read-out: EC50 M07e): 60 nM; EC50 (U937; Homo sapiens, U-937, secondary HTS, 72 h, average of triplicate, read-out: EC50 U937): 40 nM
COc1cccc(-c2cc(=O)c3ccccc3o2)c1N [PD 98059] | – | – | – | – | – | – | Inactive | Inactive | Inactive | Inactive | Inactive | Inactive | Inactive | Inactive | – | – | –
Cc1cc(I)ccc1Nc1c(C(=O)NOCC2CC2)cc(F)c(F)c1F [PD 198306] | – | – | – | – | – | – | Inactive | Inactive | Inactive | Inactive | Inactive | Inactive | Inactive | Inactive | – | – | –
Cn1cc(-c2[nH]c3cc(NC(=O)[C@H](N)C4CCCCC4)cc4c3c2C=NNC4=O)cn1 [PF-477736] | 1200 nM | – | 28 nM | 50 nM | 240 nM | 100 nM | – | – | – | – | – | – | – | – | 18 nM | – | EC50 (CMK; [15]): 220 nM; EC50 (CMS; [17]): 6200 nM
CN(C)C1CCN(C(=O)c2ccc(NC(=O)Nc3ccc(-c4nc(N5CCOCC5)nc(N5CCOCC5)n4)cc3)cc2)CC1 [PF-05212384] | – | – | – | – | – | – | – | Inactive | – | Inactive | Inactive | – | Inactive | – | – | – | EC50 (CMK; secondary high-throughput screen, read-out: average effective concentration, CMK): 7700 nM; EC50 (MOLM-13; [18]): 190 nM; EC50 (MV4-11; secondary high-throughput screen, MV4-11, read-out: average effective concentration, MV4-11): 47 nM; EC50 (U937; secondary high-throughput screen, U937, read-out: average effective concentration, U937): 24 nM
Cc1ccc(C(=O)Nc2ccc(CN3CCN(C)CC3)c(C(F)(F)F)c2)cc1C#Cc1cnc2cccnn12 [PONATINIB] | – | – | – | – | – | – | – | – | – | – | – | – | – | – | – | – | EC50 (CMK; [15]): 1600 nM; EC50 (CHRF288-11; Homo sapiens, HTS, read-out: average effective concentration, CHRF288-11): 1000 nM; EC50 (CHRF288-11; read-out: average effective concentration, CHRF288-11): 980 nM; EC50 (MOLM-13; Homo sapiens, MOLM-13, read-out: average effective concentration, MOLM-13): 17 nM; EC50 (CMS; [17]): 6700 nM; EC50 (ML2; ML-2, read-out: average effective concentration, ML-2): 5300 nM; EC50 (MV4-11; Homo sapiens, MV4-11, read-out: average effective concentration, MV4-11): 11 nM; EC50 (M07e; read-out: average effective concentration, M07e): 7000 nM; EC50 (U937; Homo sapiens, U-937, read-out: average effective concentration, U937): 2500 nM
COC(=O)[C@]1(C)CC[C@]2(C)CC[C@]3(C)C4=CC=C5C(=CC(=O)C(O)=C5C)[C@]4(C)CC[C@@]3(C)[C@@H]2C1 [PRISTIMERIN] | 240 nM | 1500 nM | 120 nM | – | – | 800 nM | – | – | Inactive | – | – | Inactive | – | – | – | 240 nM | EC50 (M07e; secondary high-throughput screen, […], read-out: average effective concentration, M07e): 4600 nM
O=C(Nc1cc(Cl)cc2c1[nH]c1cnccc12)c1cccnc1 [PS-1145] | – | – | – | – | – | – | Inactive | Inactive | Inactive | Inactive | Inactive | Inactive | Inactive | Inactive | – | – | –
O=C1NC(=O)/C(=C/c2cccc(C(F)(F)F)c2)S1 [SMI-4A] | – | – | – | – | – | – | Inactive | Inactive | Inactive | Inactive | Inactive | Inactive | Inactive | Inactive | – | – | –
O=C([O-])Cc1ccccc1.[Na+] [SODIUM PHENYLACETATE] | – | – | – | – | – | – | Inactive | Inactive | – | Inactive | Inactive | Inactive | – | Inactive | – | – | EC50 (MOLM-13; [18]): 2100 nM; average effective concentration, M07e (M07e; secondary high-throughput screen, […]): Inactive
CCN(CC)CCNC(=O)c1c(C)[nH]c(/C=C2\C(=O)Nc3ccc(F)cc32)c1C [SUNITINIB] | 490 nM | > 10000 nM | 270 nM | 34 nM | 460 nM | 270 nM | – | – | – | – | – | – | – | – | 19 nM | 330 nM | –
Nc1nc2nc[nH]c2c(=S)[nH]1 [THIOGUANINE] | 3500 nM | > 10000 nM | 6300 nM | 3000 nM | > 10000 nM | > 10000 nM | – | – | – | – | – | – | – | – | 4900 nM | 3800 nM | –
CC[C@@]1(O)C(=O)OCc2c1cc1n(c2=O)Cc2cc3c(CN(C)C)c(O)ccc3nc2-1 [TOPOTECAN] | 500 nM | 7200 nM | 250 nM | 170 nM | 1700 nM | 690 nM | – | – | – | – | – | – | – | – | 120 nM | 470 nM | –
COc1cc(NCc2ccc3nc(N)nc(N)c3c2C)cc(OC)c1OC [TRIMETREXATE] | 7600 nM | 1700 nM | 2900 nM | 1800 nM | 10000 nM | > 10000 nM | – | – | – | – | – | – | – | – | 170 nM | 4200 nM | –

Source: publication PMC6522510 (Nature Communications, 2019)
